These results are taken from patent publication US20200055817A1 (AbbVie Deutschland GmbH & Co. KG, priority 2016, published 2020).

Format in all cases: cell-based
In assay [1] the target is T1, S1P4 (Homo sapiens, UniProt O95977).
T1 sequence (O95977 1-384): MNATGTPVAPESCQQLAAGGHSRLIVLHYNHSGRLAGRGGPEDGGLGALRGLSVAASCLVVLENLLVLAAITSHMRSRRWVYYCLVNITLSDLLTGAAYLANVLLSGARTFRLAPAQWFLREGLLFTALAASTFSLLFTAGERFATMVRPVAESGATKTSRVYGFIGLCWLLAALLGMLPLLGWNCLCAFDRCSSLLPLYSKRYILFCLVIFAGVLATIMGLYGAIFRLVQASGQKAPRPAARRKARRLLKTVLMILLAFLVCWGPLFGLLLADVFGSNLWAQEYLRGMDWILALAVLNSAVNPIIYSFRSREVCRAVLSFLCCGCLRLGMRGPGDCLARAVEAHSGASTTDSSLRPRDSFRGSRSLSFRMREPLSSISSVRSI
The assay is described as follows: Aequorin assay, agonist potency, S1P4. Conditions: agonist mode, aequorin luminescence. The gist of the method:
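Cells loaded overnight at RT with 5 μM coelenterazine h in DMEM/HAM's F12 with HEPES plus 0.1% fatty acid-free BSA, then injected onto compounds; agonist-induced calcium luminescence recorded for 90 s and integrated. Signal normalised to digitonin (100 μM) or ATP (20 μM) wells, S1P as reference agonist; sigmoidal nonlinear regression.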

Assay [2] addresses T2, human EDG1 (S1PR1) receptor (Homo sapiens, UniProt P21453).
T2 construct: expressed in transfected cells; host or cells: CHO-A21-Edg1#17 (CHO clone co-expressing mitochondrial aequorin and chimaeric Gaqi5)
The assay is described as follows: Aequorin assay, agonist potency, CHO-A21-Edg1#17 cells. Conditions: agonist mode, aequorin luminescence; read-out: S1P1 EC50. A digest of the protocol:
(§1)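 CHO cells coexpressing receptor, mitochondrial aequorin and Gαqi5 (S1P3 pool: GNA16) were loaded overnight at RT with 5 μM coelenterazine h in 0.1% fatty-acid-free BSA buffer. Cells were injected onto compound, luminescence recorded 90 s and integrated, normalised to digitonin or 20 μM ATP; sigmoidal fit.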

Assay [3] addresses T3, human EDG8 (S1PR5) receptor (Homo sapiens, UniProt Q9H228).
T3 construct: carries the transgenes human EDG8 (S1PR5) receptor (Acession number NP_110387.1); expressed in transfected cells; host or cells: CHO-A21-EDG8#12 (CHO clone co-expressing mitochondrial aequorin and chimaeric Gaqi5)
Description: Aequorin assay, agonist potency, CHO-A21-EDG8#12 cells. As to conditions: agonist mode, aequorin luminescence; read-out: S1P5 EC50 range #. A digest of the protocol: as §1

Molecules are shown by their SMILES. A value given as a limit tells only on which side of the number the result lay.

T2 sequence (P21453 whole entry): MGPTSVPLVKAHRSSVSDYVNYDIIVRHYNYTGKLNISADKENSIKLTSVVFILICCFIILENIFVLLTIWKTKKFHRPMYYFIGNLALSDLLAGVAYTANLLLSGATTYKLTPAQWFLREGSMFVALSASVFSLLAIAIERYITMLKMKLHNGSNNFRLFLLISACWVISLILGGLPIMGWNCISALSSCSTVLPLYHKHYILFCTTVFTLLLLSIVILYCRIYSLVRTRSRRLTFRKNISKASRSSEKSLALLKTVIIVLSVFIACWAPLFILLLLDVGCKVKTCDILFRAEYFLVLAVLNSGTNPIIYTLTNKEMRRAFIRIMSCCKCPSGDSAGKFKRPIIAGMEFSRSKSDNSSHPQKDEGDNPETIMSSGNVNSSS
T3 sequence (Q9H228 whole entry): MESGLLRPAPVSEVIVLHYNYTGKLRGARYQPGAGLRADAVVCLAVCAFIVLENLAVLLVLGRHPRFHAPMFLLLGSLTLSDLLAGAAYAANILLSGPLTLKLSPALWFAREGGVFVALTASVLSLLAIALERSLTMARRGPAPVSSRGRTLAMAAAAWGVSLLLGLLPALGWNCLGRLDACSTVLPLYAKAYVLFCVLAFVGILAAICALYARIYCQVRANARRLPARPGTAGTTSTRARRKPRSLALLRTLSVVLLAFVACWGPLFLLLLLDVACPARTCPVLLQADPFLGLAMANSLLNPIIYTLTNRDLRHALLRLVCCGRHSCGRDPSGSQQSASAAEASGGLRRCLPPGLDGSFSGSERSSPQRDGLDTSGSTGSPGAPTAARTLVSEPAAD

For the compound `O=C(O)CN1CC2(Cc3ccc(C#Cc4ccccc4Cl)cc3C2)C1` [Example 80, 2-(5′-((2-chlorophenyl)ethynyl)-1′,3′-dihydrospiro[azetidine-3,2′-inden]-1-yl)acetic acid], the EC50 is below 1000 nM in assay [1], above 1000 nM in assay [2] and at most 10 nM in assay [3].
`O=C(O)CN1CC2(Cc3ccc(C#Cc4ccccc4Cl)cc3O2)C1` [Example 153, 2-(6′-((2-chlorophenyl)ethynyl)-3′H-spiro[azetidine-3,2′-benzofuran]-1-yl)acetic acid]: the results for the EC50 in assay [1], in assay [2] and in assay [3] were below 1000 nM, above 1000 nM and at most 10 nM, respectively.
Turning to `Cc1cccc(F)c1COc1ccc2c(c1)CC1(C2)CN(CC2(C(=O)O)CC2)C1` [Example 42, 1-((5′-((2-fluoro-6-methylbenzyl)oxy)-1′,3′-dihydrospiro[azetidine-3,2′-inden]-1-yl)methyl)cyclopropanecarboxylic acid compound with 2,2,2-trifluoroacetic acid (1:1)], the EC50 in assay [1] is below 1000 nM; in assay [2], above 1000 nM; in assay [3], 100 to 1000 nM.
Taken in the same sequence, the figures for `O=C(O)C1CC(N2CC3(Cc4ccc(OCc5c(Cl)cccc5Cl)cc4C3)C2)C1` (stereo not drawn) [Example 92, 3-(5′-((2,6-dichlorobenzyl)oxy)-1′,3′-dihydrospiro[azetidine-3,2′-inden]-1-yl)cyclobutanecarboxylic acid] were below 1000 nM, above 1000 nM and at most 10 nM.
In the case of `O=C(O)C1(CN2CC3(Cc4ccc(OCc5cccc6c5CCC6)cc4C3)C2)CC1` [Example 125, 1-((5′-((2,3-dihydro-1H-inden-4-yl)methoxy)-1′,3′-dihydrospiro[azetidine-3,2′-inden]-1-yl)methyl)cyclopropanecarboxylic acid], the EC50 is below 1000 nM in assay [1], above 1000 nM in assay [2] and 10 to 100 nM in assay [3].
As to `CCOc1c(F)cc(COc2ccc3c(c2)CC2(C3)CN(CC3(C(=O)O)CC3)C2)cc1F` [Example 120, 1-((5′-((4-ethoxy-3,5-difluorobenzyl)oxy)-1′,3′-dihydrospiro[azetidine-3,2′-inden]-1-yl)methyl)cyclopropanecarboxylic acid], the results for the EC50 in assay [1], in assay [2] and in assay [3] were below 1000 nM, above 1000 nM and 1000 to 10000 nM, respectively.
The like results for `CC(C)Oc1ccc(C#Cc2ccc3c(c2)CC2(C3)CN(CC3(C(=O)O)CC3)C2)cn1` [Example 114, 1-((5′-((6-isopropoxypyridin-3-yl)ethynyl)-1′,3′-dihydrospiro[azetidine-3,2′-inden]-1-yl)methyl)cyclopropanecarboxylic acid] were, in that order, above 1000 nM, above 1000 nM and 100 to 1000 nM.
The like results for `O=C(O)CN1CC2(Cc3ccc(OCc4c(F)cccc4Cl)cc3C2)C1` [Example 18, 2,2,2-trifluoroacetic acid compound with 2-(5′-((2-chloro-6-fluorobenzyl)oxy)-1′,3′-dihydrospiro[azetidine-3,2′-inden]-1-yl)acetic acid (1:1)] were, in that order, below 1000 nM, above 1000 nM and at most 10 nM.
The like results for `O=C(O)C1CC(N2CC3(Cc4ccc(OCC5CCCOC5)cc4C3)C2)C1` (stereo not drawn) [Example 5, 3-(5′-((tetrahydro-2H-pyran-3-yl)methoxy)-1′,3′-dihydrospiro[azetidine-3,2′-inden]-1-yl)cyclobutanecarboxylic acid] were, in that order, above 1000 nM, above 1000 nM and 1000 to 10000 nM.
For `O=C(O)C1(CN2CC3(Cc4ccc(OC5CCc6cccc(Cl)c65)cc4C3)C2)CC1` (stereo not drawn) [Example 129, 1-((5′-((7-chloro-2,3-dihydro-1H-inden-1-yl)oxy)-1′,3′-dihydrospiro[azetidine-3,2′-inden]-1-yl)methyl)cyclopropanecarboxylic acid], the EC50 in assay [1] was below 1000 nM; in assay [2], above 1000 nM; in assay [3], at most 10 nM.
The like results for `O=C(O)C1CC(N2CC3(Cc4ccc(OCc5c(Cl)cccc5C5CC5)cc4C3)C2)C1` (stereo not drawn) [Example 91, 3-(5′-((2-chloro-6-cyclopropylbenzyl)oxy)-1′,3′-dihydrospiro[azetidine-3,2′-inden]-1-yl)cyclobutanecarboxylic acid] were, in that order, below 1000 nM, below 1000 nM and at most 10 nM.
For the compound `Cc1cccc(F)c1COc1ccc2c(c1)CC1(C2)CN(CC(=O)O)C1` [Example 17, 2,2,2-trifluoroacetic acid compound with 2-(5′-((2-fluoro-6-methylbenzyl)oxy)-1′,3′-dihydrospiro[azetidine-3,2′-inden]-1-yl)acetic acid (1:1)], the EC50 is below 1000 nM in assay [1], above 1000 nM in assay [2] and at most 10 nM in assay [3].
Consider `CCOc1ccc(C#Cc2ccc3c(c2)CC2(C3)CN(C3CC(C(=O)O)C3)C2)cc1F` (stereo not drawn) [Example 100, 3-(5′-((4-ethoxy-3-fluorophenyl)ethynyl)-1′,3′-dihydrospiro[azetidine-3,2′-inden]-1-yl)cyclobutanecarboxylic acid], for which the EC50 in assay [1] is above 1000 nM; in assay [2] it was below 1000 nM; in assay [3], at most 10 nM.
The like results for `O=C(O)C1(CN2CC3(Cc4ccc(OCCc5ccc(F)cc5)cc4C3)C2)CC1` [Example 137, 1-((5′-(4-fluorophenethoxy)-1′,3′-dihydrospiro[azetidine-3,2′-inden]-1-yl)methyl)cyclopropanecarboxylic acid] were, in that order, below 1000 nM, above 1000 nM and 1000 to 10000 nM.
The like results for `O=C(O)C1(CN2CC3(Cc4ccc(OCCc5ccccc5C(F)(F)F)cc4C3)C2)CC1` [Example 56, 1-((5′-(2-(trifluoromethyl)phenethoxy)-1′,3′-dihydrospiro[azetidine-3,2′-inden]-1-yl)methyl)cyclopropanecarboxylic acid] were, in that order, below 1000 nM, above 1000 nM and 10 to 100 nM.
The like results for `O=C(O)C1(CN2CC3(Cc4ccc(OCc5cc(Cl)ccc5Cl)cc4C3)C2)CC1` [Example 36, 1-((5′-((2,5-dichlorobenzyl)oxy)-1′,3′-dihydrospiro[azetidine-3,2′-inden]-1-yl)methyl)cyclopropanecarboxylic acid compound with acetic acid (1:1)] were, in that order, below 1000 nM, above 1000 nM and 1000 to 10000 nM.
Turning to `COc1cccc(F)c1COc1ccc2c(c1)CC1(C2)CN(CC(=O)O)C1` [Example 10, 2,2,2-trifluoroacetic acid compound with 2-(5′-((2-fluoro-6-methoxybenzyl)oxy)-1′,3′-dihydrospiro[azetidine-3,2′-inden]-1-yl)acetic acid (1:1)], the figures for the EC50 in assay [1], in assay [2] and in assay [3] were below 1000 nM, above 1000 nM and 100 to 1000 nM, respectively.
Taken in the same sequence, the figures for `O=C(O)C1(CN2CC3(Cc4ccc(OCc5cc(Cl)cnc5Cl)cc4C3)C2)CC1` [Example 124, 1-((5′-((2,5-dichloropyridin-3-yl)methoxy)-1′,3′-dihydrospiro[azetidine-3,2′-inden]-1-yl)methyl)cyclopropanecarboxylic acid] were below 1000 nM, above 1000 nM and 1000 to 10000 nM.
`O=C(O)C1(CN2CC3(Cc4ccc(C#Cc5ccc(OC6CCCC6)nc5)cc4C3)C2)CC1` [Example 116, 1-((5′-((6-(cyclopentyloxy)pyridin-3-yl)ethynyl)-1′,3′-dihydrospiro[azetidine-3,2′-inden]-1-yl)methyl)cyclopropanecarboxylic acid]: the EC50 in assay [1] was above 1000 nM; in assay [2], above 1000 nM; in assay [3], 10 to 100 nM.
`O=C(O)CN1CC2(Cc3ccc(OCc4cccc5c4CCC5)cc3C2)C1` [Example 74, 2-(5′-((2,3-dihydro-1H-inden-4-yl)methoxy)-1′,3′-dihydrospiro[azetidine-3,2′-inden]-1-yl)acetic acid]: the results for the EC50 in assay [1], in assay [2] and in assay [3] were below 1000 nM, above 1000 nM and at most 10 nM, respectively.
For the compound `COc1ccc(COc2ccc3c(c2)CC2(C3)CN(CC3(C(=O)O)CC3)C2)c(Cl)c1` [Example 40, 1-((5′-((2-chloro-4-methoxybenzyl)oxy)-1′,3′-dihydrospiro[azetidine-3,2′-inden]-1-yl)methyl)cyclopropanecarboxylic acid], the EC50 in assay [1] was below 1000 nM; in assay [2] it was above 1000 nM; in assay [3], 1000 to 10000 nM.
The like results for `O=C(O)C1CC(N2CC3(Cc4ccc(OCc5cccc6c5CCC6)cc4C3)C2)C1` (stereo not drawn) [Example 83, 3-(5′-((2,3-dihydro-1H-inden-4-yl)methoxy)-1′,3′-dihydrospiro[azetidine-3,2′-inden]-1-yl)cyclobutanecarboxylic acid] were, in that order, below 1000 nM, above 1000 nM and 10 to 100 nM.
